Data published in BindingDB's records for PubMed 35766919 (Zhejiang University, 2022).

Target: Maltase-glucoamylase (Homo sapiens, UniProt O43451)
Experiment: Inhibition of alpha-glucosidase (unknown origin) using p-nitrophenyl-alpha-D-glucopyranoside as substrate incubated for 10 mins followed by substrate addition and measured after 15 mins by microplate reader analysis

Chain of Maltase-glucoamylase (O43451 whole entry): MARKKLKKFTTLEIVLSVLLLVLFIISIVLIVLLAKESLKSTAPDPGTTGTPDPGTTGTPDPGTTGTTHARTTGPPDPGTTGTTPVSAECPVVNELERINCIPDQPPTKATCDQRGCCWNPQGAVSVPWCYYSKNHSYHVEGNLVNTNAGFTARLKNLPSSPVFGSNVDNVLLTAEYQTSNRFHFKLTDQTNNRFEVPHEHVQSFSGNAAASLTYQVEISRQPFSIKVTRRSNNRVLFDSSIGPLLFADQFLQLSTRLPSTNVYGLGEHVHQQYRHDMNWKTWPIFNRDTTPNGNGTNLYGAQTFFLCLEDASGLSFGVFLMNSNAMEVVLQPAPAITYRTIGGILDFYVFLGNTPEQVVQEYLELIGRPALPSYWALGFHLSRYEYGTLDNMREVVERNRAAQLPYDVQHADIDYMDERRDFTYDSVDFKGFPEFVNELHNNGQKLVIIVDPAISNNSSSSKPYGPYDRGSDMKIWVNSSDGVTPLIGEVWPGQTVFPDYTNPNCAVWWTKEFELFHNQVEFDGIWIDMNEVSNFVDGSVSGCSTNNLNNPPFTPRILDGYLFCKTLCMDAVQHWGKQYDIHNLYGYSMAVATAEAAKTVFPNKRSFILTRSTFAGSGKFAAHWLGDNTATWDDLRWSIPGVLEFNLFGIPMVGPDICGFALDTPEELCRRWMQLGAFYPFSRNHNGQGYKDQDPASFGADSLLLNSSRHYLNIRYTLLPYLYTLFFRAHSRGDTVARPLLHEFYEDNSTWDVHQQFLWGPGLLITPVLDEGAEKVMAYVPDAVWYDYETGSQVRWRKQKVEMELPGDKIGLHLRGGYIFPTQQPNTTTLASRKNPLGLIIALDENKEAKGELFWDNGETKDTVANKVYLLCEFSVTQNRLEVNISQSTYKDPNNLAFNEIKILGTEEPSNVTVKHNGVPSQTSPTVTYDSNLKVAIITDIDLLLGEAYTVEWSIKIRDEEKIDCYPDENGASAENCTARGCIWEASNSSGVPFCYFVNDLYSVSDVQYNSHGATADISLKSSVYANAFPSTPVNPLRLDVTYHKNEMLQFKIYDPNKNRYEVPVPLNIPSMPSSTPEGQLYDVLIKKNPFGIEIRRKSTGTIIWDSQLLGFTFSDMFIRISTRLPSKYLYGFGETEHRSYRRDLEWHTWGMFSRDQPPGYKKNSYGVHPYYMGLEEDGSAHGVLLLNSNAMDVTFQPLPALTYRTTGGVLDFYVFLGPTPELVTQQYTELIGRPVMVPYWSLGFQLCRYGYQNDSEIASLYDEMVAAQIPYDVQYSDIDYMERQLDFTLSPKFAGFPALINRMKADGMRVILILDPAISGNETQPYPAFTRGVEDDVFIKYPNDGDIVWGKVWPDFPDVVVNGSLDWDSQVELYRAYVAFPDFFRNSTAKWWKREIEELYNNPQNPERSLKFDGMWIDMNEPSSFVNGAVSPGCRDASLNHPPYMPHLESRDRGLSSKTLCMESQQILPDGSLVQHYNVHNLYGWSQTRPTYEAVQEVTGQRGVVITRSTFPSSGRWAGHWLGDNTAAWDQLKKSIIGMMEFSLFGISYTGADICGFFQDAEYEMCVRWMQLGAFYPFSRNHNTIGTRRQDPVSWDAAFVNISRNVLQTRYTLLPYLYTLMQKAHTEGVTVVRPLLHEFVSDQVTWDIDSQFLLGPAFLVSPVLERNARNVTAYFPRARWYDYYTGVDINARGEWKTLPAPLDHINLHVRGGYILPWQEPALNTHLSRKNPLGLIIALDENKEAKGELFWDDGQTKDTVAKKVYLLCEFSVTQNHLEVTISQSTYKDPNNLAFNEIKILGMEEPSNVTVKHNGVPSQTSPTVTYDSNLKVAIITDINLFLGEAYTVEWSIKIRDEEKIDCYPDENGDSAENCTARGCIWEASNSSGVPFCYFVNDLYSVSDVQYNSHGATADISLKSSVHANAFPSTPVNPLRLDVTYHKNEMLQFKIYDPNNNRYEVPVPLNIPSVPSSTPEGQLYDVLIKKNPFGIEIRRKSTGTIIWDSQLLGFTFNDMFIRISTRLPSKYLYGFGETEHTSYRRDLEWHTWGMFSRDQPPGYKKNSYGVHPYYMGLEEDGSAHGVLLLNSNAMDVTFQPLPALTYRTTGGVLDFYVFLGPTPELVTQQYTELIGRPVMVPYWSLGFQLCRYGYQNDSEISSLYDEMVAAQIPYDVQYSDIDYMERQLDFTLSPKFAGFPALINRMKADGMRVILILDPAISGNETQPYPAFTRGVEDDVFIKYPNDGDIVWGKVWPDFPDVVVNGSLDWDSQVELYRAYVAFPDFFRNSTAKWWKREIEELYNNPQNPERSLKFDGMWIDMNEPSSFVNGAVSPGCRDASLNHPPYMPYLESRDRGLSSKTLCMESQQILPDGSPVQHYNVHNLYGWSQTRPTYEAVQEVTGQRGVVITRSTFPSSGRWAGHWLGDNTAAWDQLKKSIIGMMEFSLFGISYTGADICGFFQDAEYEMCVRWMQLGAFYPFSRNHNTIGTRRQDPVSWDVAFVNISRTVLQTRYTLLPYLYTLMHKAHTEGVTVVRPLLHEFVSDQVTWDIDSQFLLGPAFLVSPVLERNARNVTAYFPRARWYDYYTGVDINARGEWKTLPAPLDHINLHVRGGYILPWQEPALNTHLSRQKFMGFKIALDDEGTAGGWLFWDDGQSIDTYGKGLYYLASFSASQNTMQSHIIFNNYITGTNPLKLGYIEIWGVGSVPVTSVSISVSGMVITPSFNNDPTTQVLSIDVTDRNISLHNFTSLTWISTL

IC50 | Compound
0.89 µM | Cc1cc(O)c2c(c1)-c1c(-c3ccc(O)cc3)c(=O)oc3c1c-2c(O)c1cccc(O)c13
1.58 µM | Cc1cc(O)c2c(c1)-c1c(-c3c[nH]c4ccccc34)c(=O)oc3c1c-2c(O)c1cccc(O)c13
